# Measurements from US20140314704A1, “Treatment of B Cell Lymphomas” (Senesco Technologies, Inc., priority 2011, published 2014).
# Where two headings read alike, the source gives them in different places.
# Experiments:
# Format in all cases: cell-based
# KAS-6/1 = test: IC50 of multiple myeloma drugs alone and with IC20 SNS01-T, KAS-6/1; settings: for fold less IC50 with IC20 SNS01-T: KAS-6/1, with versus without IC20 SNS01-T
# U266 = test: IC50 of multiple myeloma drugs alone and with IC20 SNS01-T, U266; settings: for IC50: Homo sapiens, U-266; for fold less IC50 with IC20 SNS01-T: U266, with versus without IC20 SNS01-T
# RPMI-8226 = test: IC50 of multiple myeloma drugs alone and with IC20 SNS01-T, RPMI-8226; settings: for IC50: Homo sapiens; for fold less IC50 with IC20 SNS01-T: RPMI-8226, with versus without IC20 SNS01-T
# [1] = KAS-6/1, drug alone, read-out: IC50
# [2] = KAS-6/1, with IC20 SNS01-T, read-out: IC50 with IC20 SNS01-T
# [3] = U266, drug alone, read-out: IC50
# [4] = U266, with IC20 SNS01-T, read-out: IC50 with IC20 SNS01-T
# [5] = RPMI-8226, drug alone, read-out: IC50
# [6] = RPMI-8226, with IC20 SNS01-T, read-out: IC50 with IC20 SNS01-T
Compound,IC50 (KAS-6/1; [1]) [nM],IC50 (KAS-6/1; [2]) [nM],fold less IC50 with IC20 SNS01-T (KAS-6/1) [×],IC50 (U266; [3]) [nM],IC50 (U266; [4]) [nM],fold less IC50 with IC20 SNS01-T (U266) [×],IC50 (RPMI-8226; [5]) [nM],IC50 (RPMI-8226; [6]) [nM],fold less IC50 with IC20 SNS01-T (RPMI-8226) [×]
"CC(C)C[C@H](NC(=O)[C@H](Cc1ccccc1)NC(=O)c1cnccn1)B(O)O [Bortezomib, bortezomib]",7.31,2.64,~2.8,2.86,0.83,~3.4,2.12,1.51,~1.4
"Nc1cccc2c1CN(C1CCC(=O)NC1=O)C2=O (stereo not drawn) [Lenalidomide, lenalidomide]",69800,2370,~29,62000,1420,~43.7,84900,3280,25.9
